From patent US11708344B2, “Flavone derivatives for the treatment and prophylaxis of hepatitis B virus disease” (Hoffmann-La Roche Inc., priority 2018, dated 2023)
Like-named read-outs stand apart in the source and are kept apart here.

Assays:
[1] = test system: HBeAg (surrogate marker for cccDNA) in HepDES19 cells; experiment: Engineered HepDES19 primary screen assay (HBeAg ELISA); type: cell-based, HBV; settings: Hepatitis B virus, HepDES19, 120 h, read-out: IC50 (HBeAg level, HepDES19 primary screen assay), HepDES19 cells, 5 days compound incubation, HBeAg ELISA
Summary of the method: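 HepDES19 cells were induced by Tet withdrawal for 8 days, then treated with half-log compound dilutions (1% DMSO final) for 5 days at 37 °C. HBeAg was measured by ELISA as the cccDNA surrogate, viability by CCK-8, and IC50 from a 4-parameter logistic fit.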

[2] = test system: HBsAg in HBV-infected PHH; experiment: Cryopreserved primary human hepatocytes (PHH) HBV infection assay, extracellular HBsAg (CLIA); type: cell-based
Method: This assay is used to confirm the anti-HBV effect of the compounds in HBV PHH infection assay. Cryopreserved PHH (BioreclamationIVT, Lot YJM) was thawed at 37° C. and gently transferred into pre-warmed InVitroGRO HT medium (BioreclamationIVT, Cat. S03317). The mixture was centrifuged at 70 relative centrifugal force (RCF) for 3 minutes at RT, and the supernatant was discarded. Pre-warmed InVitroGRO CP medium (BioreclamationIVT, Cat #S03316) was added to the cell pellet to gently re-suspend cells. The cells were seeded at the density of 5.8×10^4 cells per well to collagen I coated 96-well plate (Gibco, Cat. A1142803) with the InVitroGRO CP medium. All plates were incubated at 37° C. with 5% CO2 and 85% humidity.
At 20 hours after plating, the medium was changed to PHH culture medium (Dulbecco's Modified Eagle Medium (DMEM)/F12 (1:1) (Gibco, Cat. 11320-033), 10% fetal bovine semm (Gibco Cat. 10099141), 100 U/mL penicillin, 100 μg/mL streptomycin (Gibco, Cat. 151401-122), […] (Invitrogen Cat. PHG0311L), 20 ng/mL dexamethasone (Sigma, Cat. D4902) and 250 ng/mL human recombinant insulin (Gibco, Cat. 12585-014)). And the cells were incubated at 37° C. with 5% CO2 and 85% humidity for 4 hours. The medium was then changed to pre-warmed PHH culture medium containing 4% polyethylene glycol (PEG) MW8000 (Sigma, Cat. P1458-50 ML) and 1% DMSO (Sigma, Cat. D2650). 5.8×10^6 genomic equivalents of HBV were added into the medium.
At 24 hours post-infection, the cells were gently washed with PBS and refreshed with PHH culture medium supplemented with 1% DMSO, and 0.25 mg/mL Matrix gel (Corning, Cat. 356237) at 200 μL per well. All plates were immediately placed in at 37° C. CO2 incubator.
24 hours later, serial dilutions of compounds made with DMSO were further diluted with the same culture medium (PHH culture medium supplemented with 1% DMSO and 0.25 mg/mL Matrix gel as described above) before they were added to the cells to reach desired final compound concentrations and 1% DMSO concentration. The medium containing the compounds were refreshed every three days.
At 9 days post-compound treatment, extracellular HBsAg level were measured with Chemiluminescence Immuno Assay (CLIA) kit (Autobio, HBsAg Quantitative CLIA). Extracellular HBV DNA was extracted by MagNA Pure 96 system (Roche) and then determined by quantitative PCR with the following primers and probe: […]
HBsAg IC50 and HBV DNA IC50 values were derived from the dose-response curve using 4 parameter logistic curve fit method. The compounds of formula (I) have HBsAg IC50<20 μM, particularly <1 μM; and HBV DNA IC50<50 μM.

[3] = Human microsome stability assay; type: in vitro ADME; settings: human liver microsomes, 1 μM test compound, 0.5 mg/mL microsomal protein, 37° C., pH 7.4, 0-30 minutes
Summary of the method: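 Compound (1 μM) incubated at 37 °C with human liver microsomes (0.5 mg/mL protein) in 100 mM potassium phosphate, pH 7.4, after 10 min preincubation; started with NADPH regenerating system. Sampled at 0–30 min, quenched with cold ACN; remaining parent quantified by LC-MS/MS, with no-NADPH controls.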

[4] = Hepatitis B virus, Hepatocyte, 216 h, read-out: HBsAg IC50, Cryopreserved PHH infected with HBV, 9 days post-compound treatment, extracellular HBsAg

| SMILES | IC50 [1] [µM] | IC50 [2, 4] [µM] | Clearance of Human microsome [3] [mL/min/kg] | IC50 ([2]; read-out: HBsAg IC50, Cryopreserved PHH infected with HBV, 9 days post-compound treatment, extracellular HBsAg) [µM] |
| --- | --- | --- | --- | --- |
| O=C(O)CCCOc1cc(C(F)(F)F)ccc1-c1cc(=O)c2cccc(Cl)c2o1 [Example A052, 4-[2-(8-chloro-4-oxo-chromen-2-yl)-5-(trifluoromethyl)phenoxy]butanoic acid] | 0.213 | 6.91 | 8.01 |  |
| COc1cc(OCCO[C@H]2C[C@@H](C(=O)O)C2)c(-c2cc(=O)c3c(C(F)(F)F)ccc(Cl)c3o2)cc1OC [Example C096, Cis-3-[2-[2-[8-chloro-4-oxo-5-(trifluoromethyl)chromen-2-yl]-4,5-dimethoxy-phenoxy]ethoxy]cyclobutanecarboxylic acid] | 3.48 | 7.78 | 6.15 |  |
| O=c1cc(-c2ccccc2OC[C@H]2C[C@@H](C(=O)O)C2)oc2c(Cl)cccc12 [Example B026-A, Cis-3-[[2-(8-chloro-4-oxo-chromen-2-yl)phenoxy]methyl]cyclobutanecarboxylic acid] | 0.0394 | 4.97 | 6.15 |  |
| O=c1cc(-c2ccc(Br)cc2O[C@H]2C[C@@H](C(=O)O)C2)oc2c(Cl)ccc(O)c12 [Example B036-A, Cis-3-[5-bromo-2-(8-chloro-5-hydroxy-4-oxo-chromen-2-yl)phenoxy]cyclobutanecarboxylic acid] | 0.926 | 9.5 | 6.15 |  |
| CS(=O)(=O)NC(=O)COCCOc1cc(C(F)(F)F)ccc1-c1cc(=O)c2cccc(Cl)c2o1 [Example C120, 2-[2-[2-(8-chloro-4-oxo-chromen-2-yl)-5-(trifluoromethyl)phenoxy]ethoxy]-N-methylsulfonyl-acetamide] | 1.05 | 4.12 | 6.15 |  |
| COc1cc(OCCCC(=O)O)c(-c2cc(=O)c3cccc(Cl)c3o2)cc1OC [Example A056, 4-[2-(8-chloro-4-oxo-chromen-2-yl)-4,5-dimethoxy-phenoxy]butanoic acid] | 3.11 | 9.21 | 6.15 |  |
| O=C(O)[C@H]1CCN(C(=O)COc2cc(C(F)(F)F)ccc2-c2cc(=O)c3cccc(Cl)c3o2)C1 [Example A083, (3S)-1-[2-[2-(8-chloro-4-oxo-chromen-2-yl)-5-(trifluoromethyl)phenoxy]acetyl]pyrrolidine-3-carboxylic acid] | 5.57 | 9.74 | 6.15 |  |
| Cc1cc(-c2cc(=O)c3cccc(Cl)c3o2)c(O[C@H]2C[C@@H](C(=O)O)C2)cc1Cl [Example B012-A, Cis-3-[5-chloro-2-(8-chloro-4-oxo-chromen-2-yl)-4-methyl-phenoxy]cyclobutanecarboxylic acid] | 3.27 |  | 6.15 | 6.01 |
| O=C(O)[C@@H]1C[C@H](Oc2cc(Br)ccc2-c2cc(=O)c3cccc(Cl)c3o2)CN1S(=O)(=O)C1CC1 [Example B083, (2S,4S)-4-[5-bromo-2-(8-chloro-4-oxo-chromen-2-yl)phenoxy]-1-cyclopropylsulfonyl-pyrrolidine-2-carboxylic acid] | 0.704 | 3.24 | 6.15 |  |
| Cc1ccc(-c2cc(=O)c3cccc(Cl)c3o2)c(O[C@H]2C[C@H](C(=O)NS(=O)(=O)C3CC3)C2)c1 [Example B052-B, Trans-3-[2-(8-chloro-4-oxo-chromen-2-yl)-5-methyl-phenoxy]-N-cyclopropylsulfonyl-cyclobutanecarboxamide] | 16.3 | 7.98 | 6.15 |  |
| COc1cc(-c2cc(=O)c3cccc(Cl)c3o2)c(OCCC(=O)O)cc1C(F)(F)F [Example A043, 3-[2-(8-chloro-4-oxo-chromen-2-yl)-4-methoxy-5-(trifluoromethyl)phenoxy]propanoic acid] | 2.25 | 6.69 | 6.15 |  |
| CS(=O)(=O)NC(=O)[C@H]1C[C@@H](Oc2cc(OC(F)(F)F)ccc2-c2cc(=O)c3cccc(Cl)c3o2)C1 [Example B047-A, Cis-3-[2-(8-chloro-4-oxo-chromen-2-yl)-5-(trifluoromethoxy)phenoxy]-N-methylsulfonyl-cyclobutanecarboxamide] | 1.96 | 5.54 | 6.15 |  |
| O=c1cc(-c2cc3c(cc2OCCO[C@H]2C[C@H](C(=O)O)C2)OCO3)oc2c(Cl)cccc12 [Example C043-B, Trans-3-[2-[[6-(8-chloro-4-oxo-chromen-2-yl)-1,3-benzodioxo1-5-yl]oxy]ethoxy]cyclobutanecarboxylic acid] | 9.42 | 5.2 | 7.72 |  |
| Cc1ccc(-c2cc(=O)c3cccc(Cl)c3o2)c(O[C@H]2C[C@H](C(=O)NS(C)(=O)=O)C2)c1 [Example B051-B, Trans-3-[2-(8-chloro-4-oxo-chromen-2-yl)-5-methyl-phenoxy]-N-methylsulfonyl-cyclobutanecarboxamide] | 9.22 | 5.3 | 6.97 |  |
| Cc1cc(-c2cc(=O)c3cccc(Cl)c3o2)c(OCCCOCC(=O)O)cc1Br [Example C011, 2-[3-[5-bromo-2-(8-chloro-4-oxo-chromen-2-yl)-4-methyl-phenoxy]propoxy]acetic acid] | 10.6 | 8.5 | 6.15 |  |
| O=c1cc(-c2ccc(Br)cc2OCCO[C@H]2C[C@@H](C(=O)O)C2)oc2c(Cl)ccc(C(F)(F)F)c12 [Example C049-A, Cis-3-[2-[5-bromo-2-[8-chloro-4-oxo-5-(trifluoromethyl)chromen-2-yl]phenoxy]ethoxy]cyclobutanecarboxylic acid] | 0.0775 | 7.31 |  |  |
| NC(=O)COCC(O)COc1cc(Br)ccc1-c1cc(=O)c2cccc(Cl)c2o1 (stereo not drawn) [Example C114, 2-[3-[5-bromo-2-(8-chloro-4-oxo-chromen-2-yl)phenoxy]-2-hydroxy-propoxy]acetamide] | 1.24 | 9.19 |  |  |
| Cc1cc(-c2cc(=O)c3cccc(Cl)c3o2)c(O[C@H]2C[C@H](C(=O)O)C2)cc1Br [Example B013-B, Trans-3-[5-bromo-2-(8-chloro-4-oxo-chromen-2-yl)-4-methyl-phenoxy]cyclobutanecarboxylic acid] | 2.45 | 1.02 |  |  |
| O=c1cc(-c2ccc(N3CCOCC3)cc2OCCO[C@H]2C[C@H](C(=O)O)C2)oc2c(Cl)cccc12 [Example C067-B, trans-3-[2-[2-(8-chloro-4-oxo-chromen-2-yl)-5-morpholino-phenoxy]ethoxy]cyclobutanecarboxylic acid] | 8.36 | 4.74 |  |  |
| Cc1ccc(-c2cc(=O)c3cccc(Cl)c3o2)c(OCCC(=O)O)c1 [Example A013, 3-[2-(8-chloro-4-oxo-chromen-2-yl)-5-methyl-phenoxy]propanoic] | 0.656 | 1.91 |  |  |
| Cc1cc(-c2cc(=O)c3cccc(Cl)c3o2)c(OCC(=O)N2C[C@@H](O)[C@@H](O)C2)cc1Br [Example A090, 2-[4-bromo-5-methyl-2-[2-oxo-2-[rac-(3S,4R)-3,4-dihydroxypyrrolidin-1-yl]ethoxy]phenyl]-8-chloro-chromen-4-one] | 4.79 | 9.35 |  |  |
